According to patent US9776992B2, “1-oxo-1,2-dihydroisoquinolin-7-yl-(5-substituted-thiophen-2-yl)-sulfonamide compounds, formulations containing those compounds, and their use as AICARFT inhibitors in the treatment of cancers” (Eli Lilly and Company, priority 2014, dated 2017):

Target: AICARFT (Homo sapiens, UniProt P31939)
Test: MS detection of ZMP in low folate media cultured NCI-H460 cells
Type: cell-based
Design: endogenous in cells; host or cells: NCI-H460
Details: for IC50: Mean ± SEM, ZMP concentration by LC-MS, NCI-H460 cells in low folate media, 16 hours; for AICARFT inhibition in low folate media assay (in words): low levels of folate in the media, summary of Table 16
Experimental: Grow NCI-H460 cells in complete high folate RPMI media (ATCC #30-2001) until cellular confluence reaches ˜80%. Wash cells with PBS, trypsinize, resuspend cells in complete low folate RPMI media (Gibco #27016-021) and perform a cell count. Transfer 1.25×10^6 cells to a T225 flask containing complete low folate RPMI media (40 mL). Grow for seven days. Split cells again with complete low folate media if confluence surpasses 80%. Wash cells with PBS, trypsinize, resuspend cells in complete low folate RPMI media, and perform a cell count. Aliquot 10×10^6 cells in complete low folate media (1 mL)+5% DMSO per cryovial. Use a cell freezing apparatus to freeze cells in a slow and controlled manner in a −80° C. freezer. The next day, transfer cells to liquid nitrogen for long term storage. Thaw frozen cells from cryovial in 37° C. water bath, wash cells once with low folate assay medium: folate free RPMI 1640 medium (Gibco, #27016-021), Glucose (Sigma, #G5767), Hepes (Hyclone, #SH30237.01), Na Pyruvate (Hyclone, #Sh30239.01), 10% FBS (Hyclone, #SH30070.03). Adjust cells concentration to 250,000 cells/mL with medium, plate cells by adding 100 μl/well (25,000 cells/well) into Biocoat poly-D-lysine 96-well plate (BD, #35-4640), and incubate at 37° C. overnight with 5% CO2. Treat cells with 20 μl/well compound diluted in media containing 3% DMSO. Incubate at 37° C. for 16 hours with 5% CO2, then remove the medium and add 1× SureFire Lysis Buffer (50 μL) (PerkinElem, SureFire® Kit component) to each well and incubate at room temperature for 10 min with gentle shaking.
Cells grown in a 96-well plate have the media removed and are lysed in AlphaScreen® SureFire® lysis buffer. Standard curves containing ZMP, dUMP and AICAr at concentrations of 5-10,000 ng/mL are prepared in 40 mM ammonium acetate, pH 4. Aliquots (40 μL) of each standard or sample are combined in a deep 96-well plate with 160 μL of internal standard solution containing ^13C5-ZMP (custom synthesis) and ^13C5-AICAr (custom synthesis) at 100 ng/mL in 40 mM ammonium acetate, pH 4. A Beckman Biomek FX liquid handler is used to add 400 μL of DCM to each sample. Samples are sealed, vortexed for 5 minutes, and placed in the refrigerator for at least 30 minutes. The samples are centrifuged for 10 minutes at 4,000 rpm and 4° C. using an Eppendorf 5810R centrifuge, and the Biomek liquid handler is used to transfer 75 μL of the aqueous layer into a clean 96-well plate. The plates are sealed prior to analysis.
The LC-MS method utilizes a Shimadzu Prominence 20A HPLC system connected to an AB Sciex 5500™ or an AB Sciex 6500™ triple quadrupole mass spectrometer running Analyst® 2.1 software. Extracted samples are separated using a Thermo Hypercarb™ Javelin guard column (2.1×20 mm, […]) with an injection volume of 15 μL and a flow rate of 1 mL/minute. Mobile phase A is a 95:5 mixture of 50 mM ammonium formate, pH 4 and ACN. Mobile phase B is a 70:30 mixture of ACN and MeOH spiked with 0.3% formic acid and 2% concentrated ammonium hydroxide solution (v/v). The gradient is as follows: 0 minutes, 0% B; 0.25 minutes, 0% B; 2.00 minutes, 30% B; 2.01 minutes, 95% B; 3.50 minutes, 95% B, 3.51 minutes, 0% B, 5.00 minutes, stop.
The mass spectrometer is operated in positive ion TurboIonSpray® multiple reaction monitoring mode with a source temperature of 700° C. The precursor and fragment ions for each analyte are: ZMP (339→110), ^13C5-ZMP (344→110), dUMP (309→81), AICAr (259→127) and ^13C5-AICAr (264→127). Calibration curves are constructed by plotting analyte concentrations vs. analyte/internal standard peak area ratios and performing a linear fit of the data using a 1/concentration weighting with AB Sciex MultiQuant™ 2.1 software. Back-calculated ZMP concentrations are fit to a four-parameter logistic equation using ACTIVITYBASE 4.0 to determine IC50 values.

Chain of AICARFT (P31939 whole entry): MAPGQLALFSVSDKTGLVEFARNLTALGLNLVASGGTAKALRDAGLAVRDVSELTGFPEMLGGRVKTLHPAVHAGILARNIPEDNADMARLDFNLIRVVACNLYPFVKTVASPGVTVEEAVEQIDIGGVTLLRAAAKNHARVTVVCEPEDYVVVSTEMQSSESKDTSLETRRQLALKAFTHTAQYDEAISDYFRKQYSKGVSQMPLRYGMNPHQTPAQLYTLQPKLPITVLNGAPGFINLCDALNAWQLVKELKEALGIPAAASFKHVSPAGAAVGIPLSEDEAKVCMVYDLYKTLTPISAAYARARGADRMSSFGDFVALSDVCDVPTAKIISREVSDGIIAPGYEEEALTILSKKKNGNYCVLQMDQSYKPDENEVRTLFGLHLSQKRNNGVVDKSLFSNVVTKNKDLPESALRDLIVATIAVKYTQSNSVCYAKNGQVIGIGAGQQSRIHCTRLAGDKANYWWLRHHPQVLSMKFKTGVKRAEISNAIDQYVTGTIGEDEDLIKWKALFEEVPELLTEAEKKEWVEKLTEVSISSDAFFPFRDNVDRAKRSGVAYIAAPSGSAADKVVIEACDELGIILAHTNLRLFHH

Compound | IC50 [nM] | AICARFT inhibition in low folate media assay (in words)
O=c1[nH]ccc2cc(F)c(NS(=O)(=O)c3ccc(N4C[C@@H](O)[C@@H](F)C4)s3)cc12 (single isomer, unassigned) [Example 33] | 7.93 | still inhibit AICARFT
O=c1[nH]ccc2cc(F)c(NS(=O)(=O)c3ccc([C@@H]4CC[C@@H](O)C4)s3)cc12 (single isomer, unassigned) [Example 46] | 39.6 | still inhibit AICARFT
CCC1(C)CC(c2ccc(S(=O)(=O)Nc3cc4c(=O)[nH]ccc4cc3F)s2)=CNC1=O (single isomer, unassigned; isomer 1) [Example 84, 5-(5-Ethyl-5-methyl-6-oxo-1,4,5,6-tetrahydropyridin-3-yl)-N-(6-fluoro-1-oxo-1,2-dihydroisoquinolin-7-yl)thiophe2ne-2-sulfonamide, Isomer 1] | 10.1 | still inhibit AICARFT
O=c1[nH]ccc2cc(F)c(NS(=O)(=O)c3ccc(N4CC[C@@H](O)C4)s3)cc12 [Example 1, N-(6-Fluoro-1-oxo-1,2-dihydroisoquinolin-7-yl)-5-[(3R)-3-hydroxypyrrolidin-1-yl]thiophene-2-sulfonamide] |  | still inhibit AICARFT
O=c1[nH]ccc2cc(F)c(NS(=O)(=O)c3ccc(N4C[C@@H](O)C(F)(F)C4)s3)cc12 [Example 41, 5-[(4R)-3,3-difluoro-4-hydroxypyrrolidin-1-yl]-N-(6-fluoro-1-oxo-1,2-dihydroisoquinolin-7-yl)thiophene-2-sulfonamide] | 42.2 | still inhibit AICARFT
CC1(C)CC(c2ccc(S(=O)(=O)Nc3cc4c(=O)[nH]ccc4cc3F)s2)=CNC1=O [Example 81, 5-(5,5-Dimethyl-6-oxo-1,4,5,6-tetrahydropyridin-3-yl)-N-(6-fluoro-1-oxo-1,2-dihydroisoquinolin-7-yl)thiophene-2-sulfonamide] | 10.2 | still inhibit AICARFT
